Assay results taken from PubChem BioAssay (NCI).
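Dose response: 5 concentrations. Exposure: 48 h. Format: 96-well plates. Endpoint: linear interpolation; highest concentration if not reached. TGI: total growth inhibition.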

Columns and labels:
Assay in all cases: growth of human tumour cells (NCI), 48 h
SK-MEL-2 melanoma = system: SK-MEL-2 melanoma
786-0 renal = system: 786-0 renal
HL-60(TB) leukemia = system: HL-60(TB) leukemia
SK-MEL-28 melanoma = system: SK-MEL-28 melanoma
MOLT-4 leukemia = system: MOLT-4 leukemia
MDA-MB-435 = system: MDA-MB-435
HCT-116 colon = system: HCT-116 colon
M14 melanoma = system: M14 melanoma
RPMI-8226 leukemia = system: RPMI-8226 leukemia
HOP-62 NSCLC = system: HOP-62 NSCLC
CAKI-1 renal = system: CAKI-1 renal
UACC-62 melanoma = system: UACC-62 melanoma
PC-3 prostate = system: PC-3 prostate
HOP-92 NSCLC = system: HOP-92 NSCLC
KM12 colon = system: KM12 colon
HT29 colon = system: HT29 colon
OVCAR-4 ovarian = system: OVCAR-4 ovarian
SK-OV-3 ovarian = system: SK-OV-3 ovarian
SF-268 CNS = system: SF-268 CNS
OVCAR-5 ovarian = system: OVCAR-5 ovarian
UO-31 renal = system: UO-31 renal
SN12C renal = system: SN12C renal
NCI-H226 lung = system: NCI-H226 lung
U251 CNS = system: U251 CNS
HS 578T breast = system: HS 578T breast
T-47D breast = system: T-47D breast
MCF7 breast = system: MCF7 breast
CCRF-CEM leukemia = system: CCRF-CEM leukemia
SF-295 CNS = system: SF-295 CNS
A549 NSCLC = system: A549 NSCLC
ACHN renal = system: ACHN renal
HCT-15 colon = system: HCT-15 colon
OVCAR-8 ovarian = system: OVCAR-8 ovarian
OVCAR-3 ovarian = system: OVCAR-3 ovarian
SW-620 colon = system: SW-620 colon
SR leukemia = system: SR leukemia
DU-145 prostate = system: DU-145 prostate
SNB-75 CNS = system: SNB-75 CNS
NCI-H23 lung = system: NCI-H23 lung
NCI/ADR-RES ovarian = system: NCI/ADR-RES ovarian
TK-10 renal = system: TK-10 renal
MDA-N = system: MDA-N
MDA-MB-231 breast = system: MDA-MB-231 breast
NCI-H460 lung = system: NCI-H460 lung
K-562 leukemia = system: K-562 leukemia
UACC-257 melanoma = system: UACC-257 melanoma
SK-MEL-5 melanoma = system: SK-MEL-5 melanoma
SNB-19 CNS = system: SNB-19 CNS
SF-539 CNS = system: SF-539 CNS
A498 renal = system: A498 renal
COLO 205 colon = system: COLO 205 colon
BT-549 breast = system: BT-549 breast
EKVX NSCLC = system: EKVX NSCLC
HCC-2998 colon = system: HCC-2998 colon
RXF 393 renal = system: RXF 393 renal

Measured: TGI

O=C1CCC[C@H]2O[C@@H](COCc3ccccc3)C[C@@H]12
not listed: BT-549 breast | EKVX NSCLC | HCC-2998 colon | RXF 393 renal
> 100 µM: all other assays above

CN=C(N)N/N=C(\C)c1ccc2oc3ccc(/C(C)=N/NC(N)=NC)cc3c2c1
> 87 µM: OVCAR-5 ovarian
> 48.8 µM: ACHN renal
> 24.5 µM: SN12C renal
10.7 µM: HL-60(TB) leukemia | PC-3 prostate
> 31.3 µM: A498 renal
2.42 µM: MOLT-4 leukemia
4.73 µM: NCI-H226 lung
> 68.1 µM: UACC-257 melanoma
> 50.7 µM: RXF 393 renal
> 22.8 µM: BT-549 breast
6.41 µM: RPMI-8226 leukemia
> 23.8 µM: UACC-62 melanoma
74 µM: SK-OV-3 ovarian
83 µM: CAKI-1 renal
4.97 µM: HCC-2998 colon
> 30.6 µM: MDA-N
4.75 µM: SR leukemia
15 µM: K-562 leukemia
9.06 µM: CCRF-CEM leukemia
5.33 µM: SW-620 colon
5.24 µM: SK-MEL-2 melanoma
not listed: HOP-62 NSCLC | HOP-92 NSCLC | HT29 colon | SF-268 CNS | U251 CNS | HS 578T breast | T-47D breast | MCF7 breast | SNB-75 CNS | NCI-H23 lung | MDA-MB-231 breast | SF-539 CNS
> 100 µM: all other assays above
